Experimental data published in ChEMBL document CHEMBL1201862, “PubChem BioAssay data set” (2004).
The source made the active and inactive calls. For most assays here, no stated cut-off is given here; in the data, actives have a measured IC50 and inactives only a lower limit.

What was measured:
[1] = target: T1, Tyrosine-protein phosphatase non-receptor type 7 (Homo sapiens, UniProt P35236); format: functional
T1 sequence (P35236 whole entry): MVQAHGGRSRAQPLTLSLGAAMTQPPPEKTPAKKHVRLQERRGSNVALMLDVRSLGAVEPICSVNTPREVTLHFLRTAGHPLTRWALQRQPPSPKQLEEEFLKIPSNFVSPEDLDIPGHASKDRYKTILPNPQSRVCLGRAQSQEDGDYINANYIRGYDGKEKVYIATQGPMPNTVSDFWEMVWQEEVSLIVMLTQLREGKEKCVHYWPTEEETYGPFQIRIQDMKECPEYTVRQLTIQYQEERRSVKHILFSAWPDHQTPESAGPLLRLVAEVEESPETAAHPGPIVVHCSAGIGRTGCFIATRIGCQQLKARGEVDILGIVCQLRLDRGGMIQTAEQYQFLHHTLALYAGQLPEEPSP

[2] = target: DNA (cytosine-5)-methyltransferase 1 (Homo sapiens, UniProt P26358); test: inhibition of DNA methylation by DNMT1 – biochemical, fluorescent molecular beacon, confirmation (AID 602386); format: functional
DNA (cytosine-5)-methyltransferase 1, sequence (P26358 whole entry): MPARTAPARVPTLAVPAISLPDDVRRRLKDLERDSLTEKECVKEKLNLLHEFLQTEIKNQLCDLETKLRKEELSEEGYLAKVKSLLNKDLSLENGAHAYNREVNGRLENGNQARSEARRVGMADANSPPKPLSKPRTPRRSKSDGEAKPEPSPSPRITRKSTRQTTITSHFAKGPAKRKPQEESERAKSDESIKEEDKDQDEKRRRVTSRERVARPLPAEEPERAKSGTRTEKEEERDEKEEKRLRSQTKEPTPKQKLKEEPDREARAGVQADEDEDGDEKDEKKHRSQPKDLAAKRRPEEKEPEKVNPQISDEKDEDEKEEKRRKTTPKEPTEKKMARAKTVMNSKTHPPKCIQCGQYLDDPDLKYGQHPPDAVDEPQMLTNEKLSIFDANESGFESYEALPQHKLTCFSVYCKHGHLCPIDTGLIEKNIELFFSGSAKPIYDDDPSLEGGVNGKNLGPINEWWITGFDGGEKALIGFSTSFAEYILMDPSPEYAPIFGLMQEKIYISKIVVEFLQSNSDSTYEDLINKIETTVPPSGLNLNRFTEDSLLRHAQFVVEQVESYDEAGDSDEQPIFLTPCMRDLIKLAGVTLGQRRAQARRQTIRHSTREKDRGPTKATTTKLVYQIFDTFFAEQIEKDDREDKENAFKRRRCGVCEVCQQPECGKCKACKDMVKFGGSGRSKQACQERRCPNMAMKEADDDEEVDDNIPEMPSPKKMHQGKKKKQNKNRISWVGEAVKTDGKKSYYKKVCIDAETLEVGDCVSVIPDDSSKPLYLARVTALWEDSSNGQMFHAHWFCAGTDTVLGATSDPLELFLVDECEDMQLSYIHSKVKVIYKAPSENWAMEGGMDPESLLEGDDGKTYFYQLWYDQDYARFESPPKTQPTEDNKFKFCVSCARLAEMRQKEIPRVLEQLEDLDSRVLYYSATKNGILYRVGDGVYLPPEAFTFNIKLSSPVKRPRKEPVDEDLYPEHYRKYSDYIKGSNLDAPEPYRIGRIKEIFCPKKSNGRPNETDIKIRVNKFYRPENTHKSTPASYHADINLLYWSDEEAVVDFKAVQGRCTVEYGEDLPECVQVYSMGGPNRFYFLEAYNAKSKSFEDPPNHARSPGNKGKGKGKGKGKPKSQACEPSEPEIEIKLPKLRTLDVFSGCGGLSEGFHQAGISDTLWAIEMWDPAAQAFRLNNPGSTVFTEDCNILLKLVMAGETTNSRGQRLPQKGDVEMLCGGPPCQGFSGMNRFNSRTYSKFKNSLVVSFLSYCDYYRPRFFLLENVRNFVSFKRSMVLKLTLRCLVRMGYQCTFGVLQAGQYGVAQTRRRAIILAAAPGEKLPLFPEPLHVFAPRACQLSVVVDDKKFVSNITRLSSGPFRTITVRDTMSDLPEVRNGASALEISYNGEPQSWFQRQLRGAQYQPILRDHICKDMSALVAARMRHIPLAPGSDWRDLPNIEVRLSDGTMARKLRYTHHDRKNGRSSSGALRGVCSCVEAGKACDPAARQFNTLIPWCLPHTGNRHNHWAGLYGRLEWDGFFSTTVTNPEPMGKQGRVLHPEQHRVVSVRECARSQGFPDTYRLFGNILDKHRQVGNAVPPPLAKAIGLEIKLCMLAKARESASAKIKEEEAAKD

[3] = target: 72 kDa type IV collagenase (Homo sapiens, UniProt P08253); test: Dose Response validation of uHTS RPN11 inhibitor hits using a MMP-2 Fluorescence assay.; format: functional
72 kDa type IV collagenase, sequence (P08253 whole entry): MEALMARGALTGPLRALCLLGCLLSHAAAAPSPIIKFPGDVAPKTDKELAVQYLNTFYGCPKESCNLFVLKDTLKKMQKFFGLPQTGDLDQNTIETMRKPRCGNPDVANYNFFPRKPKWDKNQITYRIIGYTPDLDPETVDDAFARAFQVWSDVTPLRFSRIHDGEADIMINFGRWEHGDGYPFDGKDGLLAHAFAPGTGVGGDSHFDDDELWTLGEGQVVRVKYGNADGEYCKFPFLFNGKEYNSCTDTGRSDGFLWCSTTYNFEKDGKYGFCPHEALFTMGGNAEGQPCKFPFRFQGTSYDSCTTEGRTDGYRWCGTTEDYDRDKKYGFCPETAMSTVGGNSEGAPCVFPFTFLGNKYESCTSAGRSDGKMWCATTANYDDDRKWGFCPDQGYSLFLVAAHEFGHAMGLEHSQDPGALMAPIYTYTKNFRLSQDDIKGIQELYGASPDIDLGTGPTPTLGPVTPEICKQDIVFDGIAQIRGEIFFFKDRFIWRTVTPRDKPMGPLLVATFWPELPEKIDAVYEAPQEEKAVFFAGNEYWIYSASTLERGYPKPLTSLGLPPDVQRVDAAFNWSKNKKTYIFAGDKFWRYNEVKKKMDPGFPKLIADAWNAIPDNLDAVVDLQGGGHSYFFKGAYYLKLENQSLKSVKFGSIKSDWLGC

[4] = target: T2, Dual specificity protein phosphatase 6 (Rattus norvegicus, UniProt Q64346); test: inhibition of rat DUSP6 enzyme activity – biochemical, in vitro, primary screen (AID 425)
T2 sequence (Q64346 whole entry): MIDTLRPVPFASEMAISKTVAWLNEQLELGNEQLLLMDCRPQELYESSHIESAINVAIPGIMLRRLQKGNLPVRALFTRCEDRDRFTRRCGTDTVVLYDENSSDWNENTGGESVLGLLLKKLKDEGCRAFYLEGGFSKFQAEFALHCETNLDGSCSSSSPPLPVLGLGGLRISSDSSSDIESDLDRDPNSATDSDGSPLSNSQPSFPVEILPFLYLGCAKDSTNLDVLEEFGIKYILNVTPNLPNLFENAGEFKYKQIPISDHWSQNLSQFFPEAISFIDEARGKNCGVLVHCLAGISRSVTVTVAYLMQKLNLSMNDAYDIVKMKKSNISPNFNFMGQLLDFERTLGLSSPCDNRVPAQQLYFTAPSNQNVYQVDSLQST

[5] = target: T3, Apoptotic protease-activating factor 1 (Homo sapiens, UniProt O14727); format: functional
T3 sequence (O14727 whole entry): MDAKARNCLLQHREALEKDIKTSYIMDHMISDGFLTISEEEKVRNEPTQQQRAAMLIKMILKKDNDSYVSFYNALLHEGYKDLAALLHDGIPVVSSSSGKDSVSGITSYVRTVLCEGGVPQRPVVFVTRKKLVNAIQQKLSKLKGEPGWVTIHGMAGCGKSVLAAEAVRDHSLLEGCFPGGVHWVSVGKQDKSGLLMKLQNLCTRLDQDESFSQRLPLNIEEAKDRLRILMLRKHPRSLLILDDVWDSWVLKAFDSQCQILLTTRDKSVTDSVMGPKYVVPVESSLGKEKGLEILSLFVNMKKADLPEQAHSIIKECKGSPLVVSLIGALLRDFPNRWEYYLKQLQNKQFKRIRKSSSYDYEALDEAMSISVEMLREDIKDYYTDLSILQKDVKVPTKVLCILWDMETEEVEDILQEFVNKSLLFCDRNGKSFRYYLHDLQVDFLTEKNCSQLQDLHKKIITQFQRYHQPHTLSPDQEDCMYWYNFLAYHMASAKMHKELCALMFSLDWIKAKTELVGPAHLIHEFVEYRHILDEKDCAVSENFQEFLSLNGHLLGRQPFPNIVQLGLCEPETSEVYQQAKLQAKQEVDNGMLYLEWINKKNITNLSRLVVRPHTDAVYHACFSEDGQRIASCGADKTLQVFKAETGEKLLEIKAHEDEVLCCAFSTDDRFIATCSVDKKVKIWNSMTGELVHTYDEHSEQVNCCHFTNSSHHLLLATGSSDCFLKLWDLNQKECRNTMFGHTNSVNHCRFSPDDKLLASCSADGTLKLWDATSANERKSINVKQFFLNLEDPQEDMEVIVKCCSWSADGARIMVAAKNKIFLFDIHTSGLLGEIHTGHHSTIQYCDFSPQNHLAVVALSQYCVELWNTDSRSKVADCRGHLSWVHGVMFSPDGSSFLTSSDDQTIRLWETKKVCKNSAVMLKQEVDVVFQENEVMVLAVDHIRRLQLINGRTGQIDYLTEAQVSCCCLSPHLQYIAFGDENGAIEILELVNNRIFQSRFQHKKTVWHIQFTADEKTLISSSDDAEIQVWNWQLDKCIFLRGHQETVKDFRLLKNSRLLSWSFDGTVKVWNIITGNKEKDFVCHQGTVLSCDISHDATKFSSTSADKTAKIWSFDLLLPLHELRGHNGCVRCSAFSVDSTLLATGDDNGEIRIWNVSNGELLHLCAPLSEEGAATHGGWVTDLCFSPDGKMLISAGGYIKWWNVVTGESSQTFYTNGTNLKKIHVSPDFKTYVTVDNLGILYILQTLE

Caspase-6 = target: T4, Caspase-6 (Homo sapiens, UniProt P55212); test: inhibition of CASP6 peptide cleavage – biochemical, VEID-R110 fluorescence, cherry-pick, dose response (AID 720632)
T4 sequence (P55212 whole entry): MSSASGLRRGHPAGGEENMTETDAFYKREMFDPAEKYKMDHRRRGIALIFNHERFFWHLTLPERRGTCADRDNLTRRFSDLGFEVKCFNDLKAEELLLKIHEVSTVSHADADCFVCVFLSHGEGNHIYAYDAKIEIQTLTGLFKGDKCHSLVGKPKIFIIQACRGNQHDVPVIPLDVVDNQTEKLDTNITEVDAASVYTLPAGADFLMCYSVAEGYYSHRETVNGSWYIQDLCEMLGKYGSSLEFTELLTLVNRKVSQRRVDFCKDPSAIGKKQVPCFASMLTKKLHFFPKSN

SUMO-activating enzyme = SUMO-activating enzyme (Homo sapiens, UniProt Q9UBT2); test: blockers of SAE1/SAE2–UBC9 SUMO transfer – biochemical, HTRF, uHTS, primary screen (AID 2006); format: protein-complex assay
SUMO-activating enzyme, sequence (Q9UBE0 whole entry): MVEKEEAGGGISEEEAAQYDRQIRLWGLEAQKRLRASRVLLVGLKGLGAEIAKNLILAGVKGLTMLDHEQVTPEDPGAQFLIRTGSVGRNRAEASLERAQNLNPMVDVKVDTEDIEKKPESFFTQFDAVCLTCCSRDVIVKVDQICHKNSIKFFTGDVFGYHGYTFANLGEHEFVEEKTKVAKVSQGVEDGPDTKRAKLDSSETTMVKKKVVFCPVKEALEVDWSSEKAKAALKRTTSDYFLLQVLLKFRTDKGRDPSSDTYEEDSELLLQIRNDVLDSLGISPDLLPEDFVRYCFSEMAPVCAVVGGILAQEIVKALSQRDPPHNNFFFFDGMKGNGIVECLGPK
SUMO-activating enzyme, sequence (Q9UBT2 whole entry): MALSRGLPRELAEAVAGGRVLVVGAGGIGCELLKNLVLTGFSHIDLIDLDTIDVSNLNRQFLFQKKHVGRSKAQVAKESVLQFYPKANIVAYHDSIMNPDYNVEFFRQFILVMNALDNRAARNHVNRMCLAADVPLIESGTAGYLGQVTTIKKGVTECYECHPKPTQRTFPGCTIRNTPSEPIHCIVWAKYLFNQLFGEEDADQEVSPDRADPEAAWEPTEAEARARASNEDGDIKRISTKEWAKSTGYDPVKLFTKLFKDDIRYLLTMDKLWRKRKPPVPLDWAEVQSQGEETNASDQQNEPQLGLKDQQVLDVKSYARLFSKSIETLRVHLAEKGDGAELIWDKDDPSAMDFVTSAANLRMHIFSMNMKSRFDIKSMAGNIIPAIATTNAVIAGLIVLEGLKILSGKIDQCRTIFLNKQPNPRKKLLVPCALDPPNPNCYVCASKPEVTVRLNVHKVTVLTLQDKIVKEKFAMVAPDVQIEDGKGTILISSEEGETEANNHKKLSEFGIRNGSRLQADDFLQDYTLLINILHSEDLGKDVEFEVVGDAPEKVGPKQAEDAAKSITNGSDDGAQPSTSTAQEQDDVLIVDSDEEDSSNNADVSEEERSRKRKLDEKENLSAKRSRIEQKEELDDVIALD

IC50 (SUMO-activating enzyme)	Compound	IC50 [1]	IC50 [2]	IC50 [3]	IC50 [4]	IC50 [5]	AC50 (Caspase-6)
–	CCOC(=O)c1sc2nc3c(SCC(=O)O)cc(C(=O)c4ccccc4O)cn3c(=O)c2c1C	< 1.24 µM (active)	4.12 µM (active)	0.821 µM (active)	103 µM (not active)	–	–
2.63 µM (active)	C=CCn1c(NC(=O)c2ccccc2Cl)c(C#N)c2nc3ccccc3nc21	–	–	–	> 100 µM (not active)	13.7 µM (active)	10.4 µM (active)
–	CCOC(=O)c1ccc(Nc2cc3ccccc3c(O)n2)cc1	–	–	–	–	8.78 µM (active)	15.7 µM (active)
